Source: PubChem BioAssay (NCI)
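1) Cells in 96-well plates. 2) Compound, 48 h, 5 concentrations. 3) Linear interpolation between surrounding doses. 4) Unreached endpoint = highest concentration. GI50: concentration for 50% inhibition of growth. Definition used: TGI = concentration required for complete inhibition of growth.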

Tests used:
Assay in all cases: NCI tumour cell line growth inhibition, 48 h
SF-295 CNS = test system: SF-295 CNS
NCI-H460 lung = test system: NCI-H460 lung
A549 NSCLC = test system: A549 NSCLC
RPMI-8226 leukemia = test system: RPMI-8226 leukemia
BT-549 breast = test system: BT-549 breast
UACC-257 melanoma = test system: UACC-257 melanoma
EKVX NSCLC = test system: EKVX NSCLC
CCRF-CEM leukemia = test system: CCRF-CEM leukemia
PC-3 prostate = test system: PC-3 prostate
HS 578T breast = test system: HS 578T breast

SMILES	GI50 (SF-295 CNS) [µM]	TGI (SF-295 CNS) [µM]	GI50 (NCI-H460 lung) [µM]	TGI (NCI-H460 lung) [µM]	GI50 (A549 NSCLC) [µM]	TGI (A549 NSCLC) [µM]	GI50 (RPMI-8226 leukemia) [µM]	TGI (RPMI-8226 leukemia) [µM]	GI50 (BT-549 breast) [µM]	TGI (BT-549 breast) [µM]	GI50 (UACC-257 melanoma) [µM]	TGI (UACC-257 melanoma) [µM]	GI50 (EKVX NSCLC) [µM]	TGI (EKVX NSCLC) [µM]	GI50 (CCRF-CEM leukemia) [µM]	TGI (CCRF-CEM leukemia) [µM]	GI50 (PC-3 prostate) [µM]	TGI (PC-3 prostate) [µM]	GI50 (HS 578T breast) [µM]	TGI (HS 578T breast) [µM]
Cc1oncc1C(=O)Nc1ccc(C(F)(F)F)cc1	19.5	> 100	24.8	> 100	39.8	> 100	17.5	> 100	22.1	> 100	26.9	> 100	18.7	> 100	17.8	> 100	13.9	> 100	54.5	> 100
O=C1OCC2=C1C(c1cccc([N+](=O)[O-])c1)c1cc3c(cc1N2CCO)CCC3 (stereo not given)	0.0789	16.4	0.172	14.6	0.223	> 50	0.25	> 39	0.177	5.32	11.5	> 50	0.28	> 50	0.216	> 50	0.145	> 50	0.18	> 50
COC(=O)C1=C2C3=C(C(=O)c4ccccc4C3=O)N(Cc3ccccc3)C2(OC(C)=O)C=CC1=O (stereo not given)	6.3	29.3	5.93	> 100	27.6	> 100	1.09	8.83	6.9	34.8	29.6	> 100	23.6	79.9	0.378	> 100	2.36	19.2	22	71.3
COc1cc2c3c(n(CCCN=[N+]=[N-])c(=O)c2cc1OC)-c1ccc(N)cc1C3=O	0.0835	1.51	0.0265	0.139	0.374	2.34	0.0306	0.446	0.244	6.4	0.431	1.49	1.09	8.55	0.0277	1.1	0.27	3.58	1.53	> 24.9
